Biological target: T1, CXCR4 (Homo sapiens, UniProt P61073)
T1 construct: expressed in transfected cells; host or cells: COS-7 (African green monkey), transient co-transfection with GαΔ6qi4myr
Assay: Inositol 1 phosphate (IP1) accumulation assay (HTRF) in COS-7 cells transfected with CXCR4
Type: cell-based
Settings: COS-7 transiently co-transfected with CXCR4-eYFP and chimeric GαΔ6qi4myr; 10^-12 to 10^-5 M, 1 h, 37 °C; HTRF; n ≥ 2
In short: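 COS-7 cells transiently co-transfected with CXCR4-eYFP and chimeric GαΔ6qi4myr were stimulated 1 h at 37 °C in HBSS with 20 mM LiCl; final ligand 10^–12 to 10^–5 M CXCL12, 1 or 10 μM TFF3 forms. IP1 measured by competitive HTRF (665/620 ratio), normalized to CXCL12 response.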

T1 sequence (P61073 whole entry): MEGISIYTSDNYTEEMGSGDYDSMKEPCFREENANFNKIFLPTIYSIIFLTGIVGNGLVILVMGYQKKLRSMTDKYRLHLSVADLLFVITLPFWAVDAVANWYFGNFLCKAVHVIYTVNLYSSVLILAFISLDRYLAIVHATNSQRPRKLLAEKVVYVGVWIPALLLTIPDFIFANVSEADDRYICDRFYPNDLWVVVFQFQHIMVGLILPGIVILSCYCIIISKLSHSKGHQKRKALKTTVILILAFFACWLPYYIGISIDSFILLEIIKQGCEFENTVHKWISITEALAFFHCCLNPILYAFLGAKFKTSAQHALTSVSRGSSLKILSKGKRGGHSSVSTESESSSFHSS

CC[C@H](C)[C@@H]1NC(=O)[C@H](CCCNC(=N)N)NC(=O)[C@H](CO)NC(=O)[C@H](CC(=O)O)NC(=O)[C@H](Cc2ccccc2)NC(=O)[C@@H]2CSSC[C@H](NC(=O)[C@H](CCC(N)=O)NC(=O)[C@H](CC(N)=O)NC(=O)[C@H](C)NC(=O)[C@H](CO)NC(=O)[C@H](CC(C)C)NC(=O)CNC(=O)[C@@H](NC(=O)[C@H](Cc3ccc(O)cc3)NC(=O)[C@H](CCC(=O)O)NC(=O)[C@@H](N)CCC(=O)O)C(C)C)C(=O)N[C@@H](C)C(=O)N[C@@H](C(C)C)C(=O)N3CCC[C@H]3C(=O)N[C@@H](C)C(=O)N[C@@H](CCCCN)C(=O)N[C@@H](CC(=O)O)C(=O)N[C@@H](CCCNC(=N)N)C(=O)N[C@@H](C(C)C)C(=O)N[C@@H](CC(=O)O)C(=O)N[C@H]3CSSC[C@H](NC(=O)CNC(=O)[C@H](CCCNC(=N)N)NC(=O)[C@H](CC(N)=O)NC(=O)[C@H](CC(N)=O)NC(=O)[C@H](CSSC[C@@H](C(=O)N[C@@H](Cc4ccccc4)C(=O)N[C@@H](CCCCN)C(=O)N4CCC[C@H]4C(=O)N[C@@H](CC(C)C)C(=O)N[C@@H](CCC(N)=O)C(=O)N[C@@H](CCC(=O)O)C(=O)N[C@@H](C)C(=O)N[C@@H](CCC(=O)O)C(=O)N[C@@H](CSCNC(C)=O)C(=O)N[C@H](C(=O)N[C@@H](Cc4ccccc4)C(=O)O)[C@@H](C)O)NC(=O)[C@H](Cc4c[nH]c5ccccc45)NC(=O)[C@@H]4CCCN4C(=O)[C@H](C(C)C)NC(=O)CNC(=O)[C@@H]4CCCN4C1=O)NC(=O)[C@H](CCC(=O)O)NC(=O)[C@H](CCCCN)NC(=O)[C@@H]1CCCN1C(=O)[C@H]([C@@H](C)O)NC(=O)[C@H](C(C)C)NC(=O)[C@H](Cc1c[nH]cn1)NC(=O)[C@@H]1CCCN1C(=O)[C@H](Cc1ccc(O)cc1)NC(=O)CNC3=O)C(=O)N2 [TFF3(C^57Acm)]
concentration up to which CXCR4 was not activated (agonism, IP1 accumulation): > 10 µM

Reference: publication PMC8273887 (Journal of Medicinal Chemistry, 2021)
